# Reference: patent publication US20250235543A1, “MODIFIED PROTEINS AND PROTEIN DEGRADERS” (Cullgen (Shanghai), Inc., priority 2021, published 2025)
# Assays:
# [1] = molecular target: T1, DDB1 (Homo sapiens, UniProt Q16531, D705G/DEL396-460/DEL463-701/I704S/T703N); assay: SPR binding assay to immobilized DDB1ΔBPB; details: binding affinities to DDB1
# T1 construct: His6 (N, cleaved yes); TEV protease cleavage site (N, cleaved yes); made in house; host or cells: SF9 insect cells, Bac-to-Bac baculovirus, pFastBacHTB vector
# Experimental: The binding affinities of heterobifunctional compounds to DDB1 were determined by SPR assay (FIG. 1A-1B). Purified DDB1ΔBPB proteins were immobilized on a CM5 sensor chip, and a dose range of compound solutions were injected in multi-cycle kinetic format. Data were fit to a steady state model to provide equivalent dissociation constants (Kd).
# Human DDB1ΔBPB (UniProt: Q16531. BPB domain, aa 396 to 705, is replaced with a GNGNSG linker) coding sequences were cloned into pFastBacHTB vector and were expressed in SF9 cells using Bac-to-Bac baculovirus expression system (Thermo Fisher Scientific). The expression constructs include an N-terminal His6-tag to facilitate the purification, and a TEV protease cleavage site in between. DDB1ΔBPB proteins were obtained from supernatant of cell lysates and purified through sequential application of Ni affinity column (Ni-NTA column, Bio-Rad) and size-exclusion column (Superdex 200 16/600GL column, GE Healthcare) chromatography. Protein tags were cleaved off by TEV protease, and the resulting untagged proteins were further purified by Ni affinity column. Purified proteins were verified by immunoblotting, analytic SEC, and LC-MS.
# SPR studies were performed on a Biacore X100 plus instrument (GE Healthcare). Immobilization of purified DDB1ΔBPB was carried out at 25° C. using a CM5 sensor chip. The surface was pre-equilibrated in HBS-EP running buffer (10 mM HEPES, pH7.4, 150 mM NaCl, 3 mM EDTA, 0.05% P20), before it was activated with EDC/NHS. DDB1ΔBPB proteins were immobilized by amine coupling to a density of 10,000-12,000 resonance units (RUs) on flow cell FC2, whereas flow cell FC1 was used as reference. Both protein immobilized and reference surfaces were deactivated with 1M ethanolamine. All interaction experiments were performed at 25° C. Test compounds were prepared and serially diluted in HBS-EP running buffer containing final 5% DMSO (6-point two-fold serial dilution, 100 μM-3.125 μM final concentration of compounds). Compound solutions were injected individually in multi-cycle kinetic format without regeneration (flow rate 30 μl/min, association time 120 s, dissociation time 120 s). Sensorgrams from reference surfaces and blank injections were subtracted from the raw data (double-referencing) and the data was solvent-corrected prior to analysis. All data were fit to steady state affinity model using Biacore Evaluation Software to provide equivalent dissociation constants (Kd).
# [2] = tested on: cyclin D1; assay: Cyclin D1 percentage degradation in Calu-1 cells (immunoblotting); type: cell-based; details: 16 hours
# In short: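 Cyclin D1 degradation was assessed by western blot. Clarified lysates, obtained by RIPA lysis with inhibitors and centrifugation at 13,000 rpm, were normalized by BCA protein assay and separated by SDS-PAGE. Bands were detected with Western ECL Substrate on a Bio-Rad ChemiDoc MP Imaging system and quantified in Image Lab software to derive percentage degradation.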
# [3] = molecular target: T2, CDK4 (Homo sapiens, UniProt P11802); assay: CDK4 percentage degradation in Calu-1 cells (immunoblotting); type: cell-based; details: Calu-1 cells, 16 hours; for inhibition at 10 µM: read-out: CDK4 Degradation (10 μM); for inhibition at 0.2 µM: 200 nM, read-out: CDK4 Degradation (200 nM)
# T2 construct: endogenous in cells; host or cells: Calu-1
# In short: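 CDK4 degradation was measured by immunoblotting. Cells were washed in cold PBS and lysed in RIPA buffer with inhibitors for 30 min at 4° C., then spun at 13,000 rpm to clear. After BCA protein determination, lysates were heated at 99° C. for 5 min in Laemmli buffer, resolved on SDS-PAGE, imaged on a ChemiDoc MP with ECL substrate, and band intensities quantified.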
# T2 sequence (P11802 2-303 limits assumed): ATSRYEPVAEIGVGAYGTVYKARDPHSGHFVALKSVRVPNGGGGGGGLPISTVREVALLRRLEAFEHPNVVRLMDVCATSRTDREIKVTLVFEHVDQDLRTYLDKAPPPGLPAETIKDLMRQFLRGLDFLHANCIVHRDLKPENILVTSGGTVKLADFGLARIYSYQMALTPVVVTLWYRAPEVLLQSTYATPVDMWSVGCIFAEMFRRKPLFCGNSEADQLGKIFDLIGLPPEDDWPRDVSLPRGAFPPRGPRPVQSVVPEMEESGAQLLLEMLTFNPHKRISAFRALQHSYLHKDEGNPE
# T2 sequence (P24385 whole entry partner): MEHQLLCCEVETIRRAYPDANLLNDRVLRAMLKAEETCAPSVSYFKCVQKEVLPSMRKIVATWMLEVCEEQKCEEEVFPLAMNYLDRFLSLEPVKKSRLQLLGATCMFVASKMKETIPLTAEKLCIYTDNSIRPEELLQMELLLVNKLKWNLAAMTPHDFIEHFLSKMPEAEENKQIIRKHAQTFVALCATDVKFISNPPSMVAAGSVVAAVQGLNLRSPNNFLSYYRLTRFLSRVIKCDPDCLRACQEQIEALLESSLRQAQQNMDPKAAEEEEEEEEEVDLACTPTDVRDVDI
# T2 sequence (Q16531 2-1140 limits assumed, further chain): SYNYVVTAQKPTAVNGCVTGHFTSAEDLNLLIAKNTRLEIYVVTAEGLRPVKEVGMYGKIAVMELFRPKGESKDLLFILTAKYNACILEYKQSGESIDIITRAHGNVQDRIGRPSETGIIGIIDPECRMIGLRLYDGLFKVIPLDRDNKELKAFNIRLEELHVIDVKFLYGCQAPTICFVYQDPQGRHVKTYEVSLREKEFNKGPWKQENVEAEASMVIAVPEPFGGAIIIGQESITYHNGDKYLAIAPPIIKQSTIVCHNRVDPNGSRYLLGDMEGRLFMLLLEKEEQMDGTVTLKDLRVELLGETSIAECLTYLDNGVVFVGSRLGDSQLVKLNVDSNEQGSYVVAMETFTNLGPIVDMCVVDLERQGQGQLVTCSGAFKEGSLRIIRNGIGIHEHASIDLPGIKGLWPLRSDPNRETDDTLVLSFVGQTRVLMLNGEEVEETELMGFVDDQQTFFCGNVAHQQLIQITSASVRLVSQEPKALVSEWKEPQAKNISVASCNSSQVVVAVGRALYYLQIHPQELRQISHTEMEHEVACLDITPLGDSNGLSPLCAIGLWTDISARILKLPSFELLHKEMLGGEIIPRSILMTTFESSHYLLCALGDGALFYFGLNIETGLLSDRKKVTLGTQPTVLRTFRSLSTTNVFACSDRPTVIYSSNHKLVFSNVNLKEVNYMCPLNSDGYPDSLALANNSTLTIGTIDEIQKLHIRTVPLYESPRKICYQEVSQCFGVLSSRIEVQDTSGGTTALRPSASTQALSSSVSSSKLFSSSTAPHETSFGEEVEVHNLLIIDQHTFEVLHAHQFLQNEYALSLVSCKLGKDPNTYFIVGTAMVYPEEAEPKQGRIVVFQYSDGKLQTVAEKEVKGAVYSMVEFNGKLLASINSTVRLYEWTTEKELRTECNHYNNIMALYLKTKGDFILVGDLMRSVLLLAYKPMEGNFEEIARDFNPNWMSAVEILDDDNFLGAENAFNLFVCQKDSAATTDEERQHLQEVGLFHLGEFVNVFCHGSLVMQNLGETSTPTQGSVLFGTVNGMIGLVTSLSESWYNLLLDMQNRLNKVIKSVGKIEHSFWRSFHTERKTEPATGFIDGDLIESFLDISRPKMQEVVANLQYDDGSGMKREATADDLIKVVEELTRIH
# T1 sequence (Q16531 other isoform, or with tags, fused parts or gaps DEL396-460/DEL463-701/T703N/I704S/D705G): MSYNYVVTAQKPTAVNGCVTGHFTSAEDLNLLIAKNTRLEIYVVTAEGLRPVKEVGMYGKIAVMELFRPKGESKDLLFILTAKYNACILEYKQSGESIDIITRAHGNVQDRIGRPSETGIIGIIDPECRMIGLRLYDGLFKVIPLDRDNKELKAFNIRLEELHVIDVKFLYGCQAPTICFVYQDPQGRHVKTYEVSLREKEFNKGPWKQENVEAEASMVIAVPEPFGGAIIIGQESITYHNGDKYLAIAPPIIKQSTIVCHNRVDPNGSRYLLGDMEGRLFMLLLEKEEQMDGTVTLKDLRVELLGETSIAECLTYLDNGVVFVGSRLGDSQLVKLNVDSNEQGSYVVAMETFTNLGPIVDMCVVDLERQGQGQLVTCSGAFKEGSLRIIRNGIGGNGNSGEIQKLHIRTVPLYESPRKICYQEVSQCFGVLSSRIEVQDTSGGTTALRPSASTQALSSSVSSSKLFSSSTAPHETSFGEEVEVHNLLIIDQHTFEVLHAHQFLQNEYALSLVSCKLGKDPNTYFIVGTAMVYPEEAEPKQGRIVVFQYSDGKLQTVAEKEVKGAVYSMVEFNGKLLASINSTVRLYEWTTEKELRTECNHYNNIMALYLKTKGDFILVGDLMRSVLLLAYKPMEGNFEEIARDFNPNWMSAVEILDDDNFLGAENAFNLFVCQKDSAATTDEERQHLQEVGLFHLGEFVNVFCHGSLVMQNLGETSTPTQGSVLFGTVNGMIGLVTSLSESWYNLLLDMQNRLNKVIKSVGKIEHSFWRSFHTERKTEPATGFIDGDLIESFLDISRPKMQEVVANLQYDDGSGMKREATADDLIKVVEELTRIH
SMILES,Kd [1],other results
"Cc1ccccc1C(=O)Nc1nc(Br)c(C)s1 [B1-2, N-(4-bromo-5-methylthiazol-2-yl)-2-methylbenzamide]",> 100 µM,
"CCc1nc(NC(=O)c2ccccc2C)sc1C [B1-5, N-(4-ethyl-5-methylthiazol-2-yl)-2-methylbenzamide]",20 to 50 µM,
"Cc1ccccc1C(=O)Nc1nc(C2CC2)c(C)s1 [B1-7, N-(4-cyclopropyl-5-methylthiazol-2-yl)-2-methylbenzamide]",> 100 µM,
"Cc1ccccc1C(=O)Nc1cc(C)n(C)n1 [B1-8, N-(1,5-dimethyl-1H-pyrazol-3-yl)-2-methylbenzamide]",> 100 µM,
"CC(=O)Nc1ccccc1C(=O)Nc1ccc(C)cn1 [B1-31, 2-acetamido-N-(5-methylpyridin-2-yl)benzamide]",> 100 µM,
"COc1ccc(NC(=O)c2ccccc2NC(C)=O)nn1 [B1-53, 2-acetamido-N-(6-methoxypyridazin-3-yl)benzamide]",20 to 50 µM,
"CC(=O)Nc1ccccc1C(=O)Nc1ccc(N(C)C)nn1 [B1-71, 2-acetamido-N-(6-(dimethylamino)pyridazin-3-yl)benzamide]",20 to 50 µM,
"CC(=O)Nc1ccccc1C(=O)Nc1ccc(C)c(C2CC2)n1 [B1-73, 2-acetamido-N-(6-cyclopropyl-5-methylpyridin-2-yl)benzamide]",> 100 µM,
"CC(=O)NCCCCCCCCC(=O)Nc1ccccc1C(=O)Nc1nc(C)c(C)s1 [B1-79, 2-(9-acetamidononanamido)-N-(4,5-dimethylthiazol-2-yl)benzamide]",20 to 50 µM,
"CC(=O)NCCOCCOCCNc1cccc(C(=O)Nc2nc(C)c(C)s2)c1C [B1-80, 3-((2-(2-(2-acetamidoethoxy)ethoxy)ethyl)amino)-N-(4,5-dimethylthiazol-2-yl)-2-methylbenzamide]",< 20 µM,
"COc1ccc(NC(=O)c2ccccc2NC(C)=O)nc1 [B1-83, 2-acetamido-N-(5-methoxypyridin-2-yl)benzamide]",20 to 50 µM,
"CNc1ccc(C(=O)Nc2ccc(C)cn2)c(NC(C)=O)c1 [B1-88, 2-acetamido-4-(methylamino)-N-(5-methylpyridin-2-yl)benzamide]",< 20 µM,
"Cc1cnc(NC(=O)c2ccc(NCCOCCOCCOCCOCCOCCN)cc2C)s1 [BL1-24, 4-((17-amino-3,6,9,12,15-pentaoxaheptadecyl)amino)-2-methyl-N-(5-methylthiazol-2-yl)benzamide]",< 20 µM,
"Cc1cc(NCCOCCOCCOCCOCCOCCN)ccc1C(=O)Nc1nc(C)c(C)s1 [BL1-36, 4-((17-amino-3,6,9,12,15-pentaoxaheptadecyl)amino)-N-(4,5-dimethylthiazol-2-yl)-2-methylbenzamide]",< 20 µM,
"Cc1cnc(NC(=O)c2ccc(NCCOCCOCCOCCOCCOCCNC(=O)CN3CCN(Cc4ccc(Nc5ncc(F)c(-c6cc(F)c7nc(C)n(C(C)C)c7c6)n5)nc4)CC3)cc2C)s1 [CPD-020, 4-((1-(4-((6-((5-Fluoro-4-(4-fluoro-1-isopropyl-2-methyl-1H-benzo[d]imidazol-6-yl)pyrimidin-2-yl)amino)pyridin-3-yl)methyl)piperazin-1-yl)-2-oxo-6,9,12,15,18-pentaoxa-3-azaicosan-20-yl)amino)-2-methyl-N-(5-methylthiazol-2-yl)benzamide]",< 20 µM,CyclinD1 Degradation (10 μM) [2]: D (protein percentage degradation < 30%); inhibition at 10 µM [3]: < 30%
"CNc1ccc(C(=O)Nc2ccc(N(C)C)nn2)c(NCCCCCNC(=O)CN2CCN(c3ccc(Nc4ncc5c(C)c(C(C)=O)c(=O)n(C6CCCC6)c5n4)nc3)CC2)c1 [CPD-377, 2-((5-(2-(4-(6-((6-Acetyl-8-cyclopentyl-5-methyl-7-oxo-7,8-dihydropyrido[2,3-d]pyrimidin-2-yl)amino)pyridin-3-yl)piperazin-1-yl)acetamido)pentyl)amino)-N-(6-(dimethylamino)pyridazin-3-yl)-4-(methylamino)benzamide]",,CyclinD1 Degradation (200 nM) [2]: A (protein percentage degradation >=80%); inhibition at 0.2 µM [3]: 50 to 80%
"CC(=O)c1c(C)c2cnc(Nc3ccc(N4CCN(CC(=O)NCCCCCNc5cc(Cl)ccc5C(=O)Nc5ccc(C)c(C6CC6)n5)CC4)cn3)nc2n(C2CCCC2)c1=O [CPD-378, 2-((5-(2-(4-(6-((6-acetyl-8-cyclopentyl-5-methyl-7-oxo-7,8-dihydropyrido[2,3-d]pyrimidin-2-yl)amino)pyridin-3-yl)piperazin-1-yl)acetamido)pentyl)amino)-4-chloro-N-(6-cyclopropyl-5-methylpyridin-2-yl)benzamide]",,"CyclinD1 Degradation (200 nM) [2]: B (protein percentage degradation <80%, and >=50%); inhibition at 0.2 µM [3]: < 30%"
"CC(=O)c1c(C)c2cnc(Nc3ccc(N4CCN(CC(=O)NC(C)CCCCNc5cc(Cl)ccc5C(=O)Nc5ccc(C)c(C6CC6)n5)CC4)cn3)nc2n(C2CCCC2)c1=O (centres unmarked) [CPD-379, 2-((5-(2-(4-(6-((6-Acetyl-8-cyclopentyl-5-methyl-7-oxo-7,8-dihydropyrido[2,3-d]pyrimidin-2-yl)amino)pyridin-3-yl)piperazin-1-yl)acetamido)hexyl)amino)-4-chloro-N-(6-cyclopropyl-5-methylpyridin-2-yl)benzamide]",,CyclinD1 Degradation (200 nM) [2]: A (protein percentage degradation >=80%); inhibition at 0.2 µM [3]: 50 to 80%

# More lines, main results first:
Kd [1],SMILES,other results
> 100 µM,"Cc1ccccc1C(=O)Nc1nc(C)c(C)s1 [B1-1, N-(4,5-dimethylthiazol-2-yl)-2-methylbenzamide]",
50 to 100 µM,"Cc1ccccc1C(=O)Nc1nc(C(C)C)c(C)s1 [B1-3, N-(4-isopropyl-5-methylthiazol-2-yl)-2-methylbenzamide]",
< 20 µM,"COC(=O)c1nc(NC(=O)c2ccccc2C)sc1C [B1-4, methyl 5-methyl-2-(2-methylbenzamido)thiazole-4-carboxylate]",
20 to 50 µM,"CC(=O)Nc1ccccc1C(=O)Nc1nc(C)c(C)s1 [B1-6, 2-acetamido-N-(4,5-dimethylthiazol-2-yl)benzamide]",
20 to 50 µM,"CNc1ccc(C(=O)Nc2nc(C)c(C)s2)c(NC(C)=O)c1 [B1-67, 2-acetamido-N-(4,5-dimethylthiazol-2-yl)-4-(methylamino)benzamide]",
< 20 µM,"COC(=O)c1nc(NC(=O)c2ccc(NCCOCCOCCOCCOCCOCCN)cc2C)sc1C [BL1-38, methyl 2-(4-((17-amino-3,6,9,12,15-pentaoxaheptadecyl)amino)-2-methylbenzamido)-5-methylthiazole-4-carboxylate]",
20 to 50 µM,"Cc1cnc(NC(=O)c2ccc(NCCOCCOCCOCCOCCOCCNC(=O)CN3CCN(c4ccc(Nc5ncc(F)c(-c6cc(F)c7nc(C)n(C(C)C)c7c6)n5)nc4)CC3)cc2C)s1 [CPD-021, 4-((1-(4-(6-((5-Fluoro-4-(4-fluoro-1-isopropyl-2-methyl-1H-benzo[d]imidazol-6-yl)pyrimidin-2-yl)amino)pyridin-3-yl)piperazin-1-yl)-2-oxo-6,9,12,15,18-pentaoxa-3-azaicosan-20-yl)amino)-2-methyl-N-(5-methylthiazol-2-yl)benzamide]",CyclinD1 Degradation (10 μM) [2]: A (protein percentage degradation >= 80%); inhibition at 10 µM [3]: 50 to 80%
